{
  "source": "patent US6706663B2",
  "about": "“Herbicidal 3-heterocyclic substituted benzisothiazole and benzisoxazole compounds” (Wyeth, priority 2000, dated 2004)",
  "key": {"[1]": {"tested_on": "AMBEL (Ambrosia artemisifolia)", "test": "Preemergence herbicidal evaluation", "assay_type": "in vivo, L.", "conditions": "rated 4-5 weeks after treatment", "outline": "(§1)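 Each species was sown separately in potting soil over roughly one inch of soil, and the surface sprayed with compound dissolved in aqueous acetone. Assessment used a 0–9 visual scale against a control after four to five weeks.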"}, "[2]": {"tested_on": "CASOB (Cassia obtusifolia)", "test": "Preemergence herbicidal evaluation", "assay_type": "in vivo, L.", "conditions": "rated 4-5 weeks after treatment", "outline": "as §1"}, "[3]": {"tested_on": "CHEAL (Chenopodium album)", "test": "Preemergence herbicidal evaluation", "assay_type": "in vivo, L.", "conditions": "rated 4-5 weeks after treatment", "outline": "as §1"}, "[4]": {"tested_on": "GALAP (Galium aparine)", "test": "Postemergence herbicidal evaluation", "assay_type": "in vivo", "outline": "(§2)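 Seedlings grown for about two weeks were sprayed postemergence and then kept under standard greenhouse care. Injury was rated visually 4–5 weeks after treatment on a 0–9 scale against untreated controls, and ratings from repeat tests were averaged.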"}, "[5]": {"tested_on": "ABUTH (Abutilon theophrasti)", "test": "Postemergence herbicidal evaluation", "assay_type": "in vivo, Medic.", "outline": "as §2"}, "[6]": {"tested_on": "GLXMAW (Soybean, Williams)", "test": "Postemergence herbicidal evaluation", "assay_type": "in vivo, Glycine max, (L.) Merr. cv Williams", "outline": "as §2"}, "[7]": {"tested_on": "ECHCG (Echinochloa crus-galli)", "test": "Postemergence herbicidal evaluation", "assay_type": "in vivo, (L.) Beau", "outline": "as §2"}, "[8]": {"tested_on": "SAGPY (Sagittaria pygmaea)", "test": "Flooded paddy, preemergence weed control", "assay_type": "in vivo, L.", "conditions": "rated 3-4 weeks after treatment, 0-9 rating scale", "outline": "(§3)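 Seeds or propagules were planted in the top 0.5 cm of silt loam soil and kept flooded 1.5–3 cm above the surface throughout, then held in the greenhouse. Injury was rated visually on a 0–9 scale against untreated controls, covering stand, vigor, malformation, size and chlorosis.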"}, "[9]": {"tested_on": "TRZAWR (Wheat, Winter, cv Riband)", "test": "Preemergence herbicidal evaluation", "assay_type": "in vivo, Triticum aestivum", "conditions": "rated 4-5 weeks after treatment", "outline": "as §1"}, "[10]": {"tested_on": "CYPSE (Cyperus serotinus)", "test": "Flooded paddy, preemergence weed control", "assay_type": "in vivo, Rottb.", "conditions": "rated 3-4 weeks after treatment, 0-9 rating scale", "outline": "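Herbicidal effect was scored visually on a 0–9 scale against an untreated control 3–4 weeks after treatment. Compounds were applied preemergence as 50/50 v/v aqueous/acetone mixtures into flood water (1.5–3 cm deep over silt loam), at roughly 0.0080 to 0.1250 kg/ha active ingredient.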"}, "[11]": {"tested_on": "ECHORC (Echinochloa oryzoides)", "test": "Flooded paddy, preemergence weed control", "assay_type": "in vivo, Echinochloa oryzoides (Ard.) Fritsch.", "conditions": "rated 3-4 weeks after treatment, 0-9 rating scale", "outline": "as §3"}, "[12]": {"tested_on": "ZEAMX (Corn, Field)", "test": "Postemergence herbicidal evaluation", "assay_type": "in vivo, Zea mays, L.", "outline": "as §2"}, "[13]": {"tested_on": "IPOHE (Ipomoea hederacea)", "test": "Preemergence herbicidal evaluation", "assay_type": "in vivo, (L.) Jacq.", "conditions": "rated 4-5 weeks after treatment"}, "[14]": {"tested_on": "IPOHE (Ipomoea hederacea)", "test": "Postemergence herbicidal evaluation", "assay_type": "in vivo, (L.) Jacq.", "outline": "as §2"}, "[15]": {"tested_on": "GLXMAW (Soybean, Williams)", "test": "Preemergence herbicidal evaluation", "assay_type": "in vivo, Glycine max, (L.) Merr. cv Williams", "conditions": "rated 4-5 weeks after treatment"}, "[16]": {"tested_on": "CYPIR (Cyperus iria)", "test": "Flooded paddy, preemergence weed control", "assay_type": "in vivo", "conditions": "rated 3-4 weeks after treatment, 0-9 rating scale", "outline": "as §3"}, "[17]": {"tested_on": "ORYSAT (Rice, Tebonnet)", "test": "Preemergence herbicidal evaluation", "assay_type": "in vivo, Oryza sativa, (L.) Tebonnet", "conditions": "rated 4-5 weeks after treatment"}, "[18]": {"tested_on": "AMBEL (Ambrosia artemisifolia)", "test": "Postemergence herbicidal evaluation", "assay_type": "in vivo, L.", "outline": "as §2"}, "[19]": {"tested_on": "CASOB (Cassia obtusifolia)", "test": "Postemergence herbicidal evaluation", "assay_type": "in vivo, L.", "outline": "as §2"}, "[20]": {"tested_on": "CHEAL (Chenopodium album)", "test": "Postemergence herbicidal evaluation", "assay_type": "in vivo, L.", "outline": "as §2"}, "[21]": {"tested_on": "GALAP (Galium aparine)", "test": "Preemergence herbicidal evaluation", "assay_type": "in vivo", "conditions": "rated 4-5 weeks after treatment", "outline": "as §1"}, "[22]": {"tested_on": "ZEAMX (Corn, Field)", "test": "Preemergence herbicidal evaluation", "assay_type": "in vivo, Zea mays, L.", "conditions": "rated 4-5 weeks after treatment"}},
  "data": [
    {"smiles": "Cc1cccnc1-c1nsc2cc(F)c(-n3c(=O)cc(C(F)(F)F)n(C)c3=O)cc12", "note": "[Compound 44, 3-[6-fluoro-3-(3-methyl-2-pyridyl)-1,2-benzisothiazol-5-yl]-1-methyl-6-(trifluoromethyl)uracil]", "values": [
      {"measurement": "Preemergence herbicidal rating AMBEL", "setting": "[1]; Rate 0.0620 kg/ha", "result": 8.0},
      {"measurement": "Preemergence herbicidal rating AMBEL", "setting": "[1]; Rate 0.1250 kg/ha", "result": 9.0},
      {"measurement": "Preemergence herbicidal rating AMBEL", "setting": "[1]; Rate 0.2500 kg/ha", "result": 9.0},
      {"measurement": "Preemergence herbicidal rating CASOB", "setting": "[2]; Rate 0.0620 kg/ha", "result": 1.0},
      {"measurement": "Preemergence herbicidal rating CASOB", "setting": "[2]; Rate 0.1250 kg/ha", "result": 5.5},
      {"measurement": "Preemergence herbicidal rating CASOB", "setting": "[2]; Rate 0.2500 kg/ha", "result": 9.0},
      {"measurement": "Preemergence herbicidal rating CHEAL", "setting": "[3]; Rate 0.0620 kg/ha", "result": 9.0},
      {"measurement": "Preemergence herbicidal rating CHEAL", "setting": "[3]; Rate 0.1250 kg/ha", "result": 9.0},
      {"measurement": "Preemergence herbicidal rating CHEAL", "setting": "[3]; Rate 0.2500 kg/ha", "result": 9.0},
      {"measurement": "Postemergence herbicidal rating, GALAP", "setting": "[4]; rate 0.0320 kg/ha", "result": 4.0},
      {"measurement": "Postemergence herbicidal rating, GALAP", "setting": "[4]; rate 0.0620 kg/ha", "result": 7.0},
      {"measurement": "Postemergence herbicidal rating, ABUTH", "setting": "[5]; rate 0.0320 kg/ha", "result": 9.0},
      {"measurement": "Postemergence herbicidal rating, ABUTH", "setting": "[5]; rate 0.0620 kg/ha", "result": 9.0},
      {"measurement": "Postemergence herbicidal rating, GLXMAW", "setting": "[6]; rate 0.0320 kg/ha", "result": 8.5},
      {"measurement": "Postemergence herbicidal rating, GLXMAW", "setting": "[6]; rate 0.0620 kg/ha", "result": 8.5},
      {"measurement": "Postemergence herbicidal rating, ECHCG", "setting": "[7]; rate 0.0320 kg/ha", "result": 1.0},
      {"measurement": "Postemergence herbicidal rating, ECHCG", "setting": "[7]; rate 0.0620 kg/ha", "result": 3.0},
      {"measurement": "herbicidal rating, SAGPY", "setting": "[8]; rate 0.0080 kg/ha", "result": 0.0},
      {"measurement": "herbicidal rating, SAGPY", "setting": "[8]; rate 0.0320 kg/ha", "result": 4.5},
      {"measurement": "herbicidal rating, SAGPY", "setting": "[8]; rate 0.1250 kg/ha", "result": 9.0},
      {"measurement": "Preemergence herbicidal rating TRZAWR", "setting": "[9]; Rate 0.0620 kg/ha", "result": 6.0},
      {"measurement": "Preemergence herbicidal rating TRZAWR", "setting": "[9]; Rate 0.1250 kg/ha", "result": 7.0},
      {"measurement": "Preemergence herbicidal rating TRZAWR", "setting": "[9]; Rate 0.2500 kg/ha", "result": 9.0},
      {"measurement": "herbicidal rating, CYPSE", "setting": "[10]; rate 0.0080 kg/ha", "result": 0.0},
      {"measurement": "herbicidal rating, CYPSE", "setting": "[10]; rate 0.0320 kg/ha", "result": 9.0},
      {"measurement": "herbicidal rating, CYPSE", "setting": "[10]; rate 0.1250 kg/ha", "result": 9.0},
      {"measurement": "herbicidal rating, ECHORC", "setting": "[11]; rate 0.0080 kg/ha", "result": 3.0},
      {"measurement": "herbicidal rating, ECHORC", "setting": "[11]; rate 0.0320 kg/ha", "result": 8.5},
      {"measurement": "herbicidal rating, ECHORC", "setting": "[11]; rate 0.1250 kg/ha", "result": 9.0},
      {"measurement": "Postemergence herbicidal rating, ZEAMX", "setting": "[12]; rate 0.0320 kg/ha", "result": 5.0},
      {"measurement": "Postemergence herbicidal rating, ZEAMX", "setting": "[12]; rate 0.0620 kg/ha", "result": 5.5},
      {"measurement": "Preemergence herbicidal rating IPOHE", "setting": "[13]; Rate 0.0620 kg/ha", "result": 3.0},
      {"measurement": "Preemergence herbicidal rating IPOHE", "setting": "[13]; Rate 0.1250 kg/ha", "result": 7.5},
      {"measurement": "Preemergence herbicidal rating IPOHE", "setting": "[13]; Rate 0.2500 kg/ha", "result": 9.0},
      {"measurement": "Postemergence herbicidal rating, IPOHE", "setting": "[14]; rate 0.0320 kg/ha", "result": 9.0},
      {"measurement": "Postemergence herbicidal rating, IPOHE", "setting": "[14]; rate 0.0620 kg/ha", "result": 9.0},
      {"measurement": "Preemergence herbicidal rating GLXMAW", "setting": "[15]; Rate 0.0620 kg/ha", "result": 5.0},
      {"measurement": "Preemergence herbicidal rating GLXMAW", "setting": "[15]; Rate 0.1250 kg/ha", "result": 6.5},
      {"measurement": "Preemergence herbicidal rating GLXMAW", "setting": "[15]; Rate 0.2500 kg/ha", "result": 9.0},
      {"measurement": "herbicidal rating, CYPIR", "setting": "[16]; rate 0.0080 kg/ha", "result": 0.0},
      {"measurement": "herbicidal rating, CYPIR", "setting": "[16]; rate 0.0320 kg/ha", "result": 8.0},
      {"measurement": "herbicidal rating, CYPIR", "setting": "[16]; rate 0.1250 kg/ha", "result": 9.0},
      {"measurement": "Preemergence herbicidal rating ORYSAT", "setting": "[17]; Rate 0.0620 kg/ha", "result": 6.5},
      {"measurement": "Preemergence herbicidal rating ORYSAT", "setting": "[17]; Rate 0.1250 kg/ha", "result": 8.0},
      {"measurement": "Preemergence herbicidal rating ORYSAT", "setting": "[17]; Rate 0.2500 kg/ha", "result": 8.0},
      {"measurement": "Postemergence herbicidal rating, AMBEL", "setting": "[18]; rate 0.0320 kg/ha", "result": 9.0},
      {"measurement": "Postemergence herbicidal rating, AMBEL", "setting": "[18]; rate 0.0620 kg/ha", "result": 9.0},
      {"measurement": "Postemergence herbicidal rating, CASOB", "setting": "[19]; rate 0.0320 kg/ha", "result": 2.0},
      {"measurement": "Postemergence herbicidal rating, CASOB", "setting": "[19]; rate 0.0620 kg/ha", "result": 4.0},
      {"measurement": "Postemergence herbicidal rating, CHEAL", "setting": "[20]; rate 0.0320 kg/ha", "result": 9.0},
      {"measurement": "Postemergence herbicidal rating, CHEAL", "setting": "[20]; rate 0.0620 kg/ha", "result": 9.0},
      {"measurement": "Preemergence herbicidal rating GALAP", "setting": "[21]; Rate 0.0620 kg/ha", "result": 0.0},
      {"measurement": "Preemergence herbicidal rating GALAP", "setting": "[21]; Rate 0.1250 kg/ha", "result": 9.0},
      {"measurement": "Preemergence herbicidal rating GALAP", "setting": "[21]; Rate 0.2500 kg/ha", "result": 9.0},
      {"measurement": "Preemergence herbicidal rating ZEAMX", "setting": "[22]; Rate 0.0620 kg/ha", "result": 7.5},
      {"measurement": "Preemergence herbicidal rating ZEAMX", "setting": "[22]; Rate 0.1250 kg/ha", "result": 7.5},
      {"measurement": "Preemergence herbicidal rating ZEAMX", "setting": "[22]; Rate 0.2500 kg/ha", "result": 9.0}
    ]}
  ]
}
